Reference: PMC12181431, “Unveiling the structure, function and dynamics of StmPr1 in Stenotrophomonas maltophilia virulence” (Scientific Reports, 2025)
Where two headings read alike, the source gives them in different places.

Tests used:
Proteinase K = biological target: T1, Proteinase K (Parengyodontium album, UniProt P06873); assay: protease activity assay (same assay as for StmPr1); format: biochemical
T1 construct: gene PROK

StmPr1 = biological target: T2, StmPr1 (Stenotrophomonas maltophilia, UniProt Q93IQ4); assay: X-ray crystal structure ([…] Å) plus protease activity assay; format: biochemical
T2 construct: StmPr1 36 kDa (self-digested from 47 kDa, C-terminal extension cleaved)
T2 sequence (Q93IQ4 entry or part of it): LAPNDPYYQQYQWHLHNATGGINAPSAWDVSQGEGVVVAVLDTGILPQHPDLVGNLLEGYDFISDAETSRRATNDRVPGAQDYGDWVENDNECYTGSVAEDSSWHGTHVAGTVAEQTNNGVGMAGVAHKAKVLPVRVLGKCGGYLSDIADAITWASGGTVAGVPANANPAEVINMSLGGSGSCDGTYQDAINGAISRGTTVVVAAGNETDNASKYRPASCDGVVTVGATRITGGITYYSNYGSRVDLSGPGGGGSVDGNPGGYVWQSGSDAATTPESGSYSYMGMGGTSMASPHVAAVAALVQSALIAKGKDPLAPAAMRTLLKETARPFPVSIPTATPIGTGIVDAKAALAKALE

T1 sequence (P06873 106-384): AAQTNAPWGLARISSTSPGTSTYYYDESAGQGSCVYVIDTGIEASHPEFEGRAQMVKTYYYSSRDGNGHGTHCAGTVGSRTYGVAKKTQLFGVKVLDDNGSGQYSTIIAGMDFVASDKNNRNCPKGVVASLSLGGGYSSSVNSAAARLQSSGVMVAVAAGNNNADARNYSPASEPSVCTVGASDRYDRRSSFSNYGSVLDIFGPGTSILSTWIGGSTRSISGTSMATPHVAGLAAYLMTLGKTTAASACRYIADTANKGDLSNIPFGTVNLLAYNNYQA

Compound | IC50 (Proteinase K) [nM] | IC50 (StmPr1; read-out: IC50) [nM] | IC50 (StmPr1) [nM]
CC(C)C[C@H](NC(=O)[C@H](Cc1ccccc1)NC(=O)c1cnccn1)B(O)O [Bortezomib] | 1450 | 1970 | –
O=S(=O)(F)Cc1ccccc1 [PMSF] | – | – | 125000
